# In patent US20240025906A1 (NEURON23, INC., priority 2022, published 2024):
# Read-outs that look alike come from different tables or passages of the source.
# Tests used:
# [1] = target: T1, TYK2 JH2 (Homo sapiens, UniProt P29597); experiment: TYK2 JH2 binding assay (KINOMEscan KdELECT competitive binding); conditions: TYK2 JH2 domain
# T1 construct: purchased DiscoverX (KINOMEscan KdELECT service); host or cells: E. coli BL21-derived (T7 phage display) or HEK-293
# Summary of the method: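 The assay measures displacement of DNA- or phage-tagged TYK2 pseudokinase domain from an affinity resin; compound binding lowers the amount captured, read by qPCR. Incubation lasts 1 h at room temperature.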
# [2] = system: JAK1/TYK2 pSTAT5 (Tyr694/699) in THP-1 cell line; experiment: IFNa-stimulated JAK1/TYK2 pSTAT5 (Tyr694/699) inhibition cellular assay, AlphaLISA; type: cell-based; conditions: Homo sapiens, THP-1 cells, AlphaLISA (Assay B)
# Summary of the method: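 An eight-point 6-fold titration of compound (0.04–10000 nM final) is given to THP-1 cells for 1 h before 30 min of IFNa exposure. Phospho-STAT5 is read by AlphaLISA at 615 nm. IC50 values are derived by logistic regression with bottom set to 0 and Hill slope set to −1.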
# [3] = DiscoverX KINOMEscan KdELECT (Assay A), read-out: Biochemical TYK2_DiscoverX_JH2_BND_Kd
# [4] = IFNa-stimulated, read-out: Cellular_THP1_IFNa-pSTATS_TYK2
# [5] = KINOMEscan KdELECT (Assay A), read-out: Biochemical TYK2_DiscoverX_JH2_BND_Kd
# [6] = KINOMEscan KdELECT (Assay A), read-out: Biochemical TYK2_JH2_Kd
# [7] = IFNa-stimulated, read-out: Cellular THP1_IFNa-pSTATS_IC50
# [8] = IFNa-stimulated pSTAT5 (Tyr694/699), read-out: Cellular_THP1_IFNa-pSTATS_TYK2
# T1 sequence (P29597 589-875 limits assumed): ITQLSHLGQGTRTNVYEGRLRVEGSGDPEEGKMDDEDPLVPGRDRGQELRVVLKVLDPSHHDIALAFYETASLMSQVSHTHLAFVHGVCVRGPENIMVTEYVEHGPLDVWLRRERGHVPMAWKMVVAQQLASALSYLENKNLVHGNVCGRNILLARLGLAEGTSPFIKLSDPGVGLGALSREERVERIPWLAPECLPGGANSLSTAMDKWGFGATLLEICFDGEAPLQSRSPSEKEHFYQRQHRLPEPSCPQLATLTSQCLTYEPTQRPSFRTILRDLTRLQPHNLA
"Kd [1, 3] [nM]","IC50 [2, 4] [nM]","Kd [1, 5] [nM]",SMILES,further results
≤ 100,≤ 500,,"CNc1ncc(-c2nc3cc(Br)ccc3o2)c2cc(NC(=O)C3CC3)ncc12 [Example 209, N-(5-(5-bromobenzo[d]oxazol-2-yl)-8-(methylamino)-2,7-naphthyridin-3-yl)cyclopropanecarboxamide]",
,≤ 500,≤ 100,"CNc1ncc(C#Cc2ccc(NC(=O)COC)cc2)c2cc(NC(=O)C3CC3)ncc12 [Example 737, N-(5-((4-(2-methoxyacetamido)phenyl)ethynyl)-8-(methylamino)-2,7-naphthyridin-3-yl)cyclopropanecarboxamide]",
,,,"CNc1ncc(-c2nc3cc(N4CCC4)ccn3n2)c2cc(NC(=O)C3CC3)ncc12 [Example 188, N-(5-(7-(azetidin-1-yl)-[1,2,4]triazolo[1,5-a]pyridin-2-yl)-8-(methylamino)-2,7-naphthyridin-3-yl)cyclopropanecarboxamide]","Kd [1, 6]: ≤ 100 nM; IC50 [2, 7]: ≤ 500 nM"
,,,"CNc1ncc(N2CCCCC2)c2cc(NC(=O)C3CC3)ncc12 [Example 56, N-(8-(methylamino)-5-(piperidin-1-yl)-2,7-naphthyridin-3-yl)cyclopropanecarboxamide]","Kd [1, 6]: ≤ 100 nM; IC50 [2, 7]: > 500 nM"
,,,"CNc1ncc(-c2ccccc2)c2cc(NCc3ccc(OC)cc3)ncc12 [Example 98, N^6-(4-methoxybenzyl)-N^1-methyl-4-phenyl-2,7-naphthyridine-1,6-diamine]","Kd [1, 6]: 1000 to 10000 nM; IC50 [2, 7]: > 500 nM"
,,≤ 100,"CNc1ncc(C#Cc2cnc(C)n2C)c2cc(NC(=O)C3CC3)ncc12 [Example 1004, N-(5-((1,2-dimethyl-1H-imidazol-5-yl)ethynyl)-8-(methylamino)-2,7-naphthyridin-3-yl)cyclopropanecarboxamide]","IC50 [2, 8]: ≤ 500 nM"
,≤ 500,≤ 100,"CNc1ncc(C#Cc2ccc3c(c2)OC=CO3)c2cc(NC(=O)C3CC3)ncc12 [Example 895, N-(5-(benzo[b][1,4]dioxin-6-ylethynyl)-8-(methylamino)-2,7-naphthyridin-3-yl)cyclopropanecarboxamide]",
,> 500,≤ 100,"CNc1ncc(C#Cc2ccc(OC3CN(C(C)=O)C3)cc2)c2cc(NC(=O)C3(F)CC3)nnc12 [Example 915, N-(5-((4-((1-acetylazetidin-3-yl)oxy)phenyl)ethynyl)-8-(methylamino)pyrido[3,4-c]pyridazin-3-yl)-1-fluorocyclopropane-1-carboxamide]",
≤ 100,≤ 500,,"[2H]C([2H])([2H])Nc1ncc(-c2nc3ccc(OC)cn3n2)c2cc(NC(=O)[C@H]3C[C@H]3C)ncc12 [Example 570, (1S,2R)—N-(5-(6-methoxy-[1,2,4]triazolo[1,5-a]pyridin-2-yl)-8-((methyl-d3)amino)-2,7-naphthyridin-3-yl)-2-methylcyclopropane-1-carboxamide]",
,≤ 500,≤ 100,"CNc1ncc(C#Cc2ccnc(C)c2)c2cc(NC(=O)C3CC3)ncc12 [Example 601, N-(8-(methylamino)-5-((2-methylpyridin-4-yl)ethynyl)-2,7-naphthyridin-3-yl)cyclopropanecarboxamide]",
,> 500,≤ 100,"CNc1ncc(CCc2ccc(OC(F)(F)F)cc2)c2cc(NC(=O)C3CC3)ncc12 [Example 848, N-(8-(methylamino)-5-(4-(trifluoromethoxy)phenethyl)-2,7-naphthyridin-3-yl)cyclopropanecarboxamide]",
,,,"CNc1ncc(-c2ncc(C)o2)c2cc(NC(=O)C3CC3)ncc12 [Example 133, N-(8-(methylamino)-5-(5-methyloxazol-2-yl)-2,7-naphthyridin-3-yl)cyclopropanecarboxamide]","Kd [1, 6]: ≤ 100 nM; IC50 [2, 7]: > 500 nM"
≤ 100,≤ 500,,"[2H]C([2H])([2H])Nc1ncc(-c2nc3cc(N4CCOCC4)ccc3o2)c2cc(NC(=O)C3(F)CC3)ncc12 [Example 442, 1-fluoro-N-(8-((methyl-d3)amino)-5-(5-morpholinobenzo[d]oxazol-2-yl)-2,7-naphthyridin-3-yl)cyclopropane-1-carboxamide]",
≤ 100,≤ 500,,"CNc1ncc(-c2nc3ccc(N4CCOCC4)cn3n2)c2cc(NC(=O)[C@@H](C)F)ncc12 (single isomer, unassigned) [Example 532]",
≤ 100,≤ 500,,"CNc1ncc(-c2nc3cc(N4C[C@H]5C[C@@H]4CO5)ccc3o2)c2cc(NC(=O)C3CC3)ncc12 [Example 299, N-(5-(5-((1R,4R)-2-oxa-5-azabicyclo[2.2.1]heptan-5-yl)benzo[d]oxazol-2-y1)-8-(methylamino)-2,7-naphthyridin-3-yl)cyclopropanecarboxamide]",
≤ 100,≤ 500,,"CNc1ncc(-c2nc3ccc(N4CCOCC4)cn3n2)c2cc(Nc3ncccc3F)ncc12 [Example 537, N^6-(3-fluoropyridin-2-yl)-N^1-methyl-4-(6-morpholino-[1,2,4]triazolo[1,5-a]pyridin-2-yl)-2,7-naphthyridine-1,6-diamine]",
≤ 100,≤ 500,,"CNc1ncc(-c2nc3cc(OCc4ccccc4)ccc3o2)c2cc(NC(=O)C3CC3)ncc12 [Example 234, N-(5-(5-(benzyloxy)benzo[d]oxazol-2-yl)-8-(methylamino)-2,7-naphthyridin-3-yl)cyclopropanecarboxamide]",
,≤ 500,≤ 100,"CNc1ncc(C#Cc2ccc3nc(C4CC4)n(C)c3c2)c2cc(NC(=O)C3CC3)ncc12 [Example 740, N-(5-((2-cyclopropyl-1-methyl-1H-benzo[d]imidazol-6-yl)ethynyl)-8-(methylamino)-2,7-naphthyridin-3-yl)cyclopropanecarboxamide]",
,≤ 500,≤ 100,"CNc1ncc(C#Cc2ccc(CN3CCOCC3)cc2)c2cc(NC(=O)[C@H]3C[C@H]3C)ncc12 [Example 821, (1S,2R)-2-methyl-N-(8-(methylamino)-5-((4-(morpholinomethyl)phenyl)ethynyl)-2,7-naphthyridin-3-yl)cyclopropane-1-carboxamide]",
,≤ 500,≤ 100,"CNc1ncc(-c2nc3c(o2)CCCC3)c2cc(NC(=O)C3CC3)ncc12 [Example 843, N-(8-(methylamino)-5-(4,5,6,7-tetrahydrobenzo[d]oxazol-2-yl)-2,7-naphthyridin-3-yl)cyclopropanecarboxamide]",
≤ 100,≤ 500,,"CNc1ncc(-c2nc3ccc(N4CCC(F)C4)cn3n2)c2cc(NC(=O)C3CC3)ncc12 (centres unmarked) [Example 486, N-(5-(6-(3-fluoropyrrolidin-1-yl)-[1,2,4]triazolo[1,5-a]pyridin-2-yl)-8-(methylamino)-2,7-naphthyridin-3-yl)cyclopropanecarboxamide]",
≤ 100,≤ 500,,"CNc1ncc(-c2nc3cc(C4CCN([C@]5(C)COC[C@@H]5O)CC4)ccc3o2)c2cc(NC(=O)C3CC3)ncc12 (single isomer, unassigned) [Example 262]",
≤ 100,≤ 500,,"CNc1ncc(-c2nc3ccc(C)cn3n2)c2cc(NC(=O)[C@H]3C[C@H]3C)ncc12 [Example 562, (1S,2R)-2-methyl-N-(5-(6-methyl-[1,2,4]triazolo[1,5-a]pyridin-2-yl)-8-(methylamino)-2,7-naphthyridin-3-yl)cyclopropane-1-carboxamide]",
,,,"CNc1ncc(-c2cnn(C)c2)c2cc(NC(=O)C3CC3)ncc12 [Example 25, N-(5-(1-methyl-1H-pyrazol-4-yl)-8-(methylamino)-2,7-naphthyridin-3-yl)cyclopropanecarboxamide]","Kd [1, 6]: ≤ 100 nM; IC50 [2, 7]: > 500 nM"
,,,"CNc1ncc(-c2ocnc2C)c2cc(NC(=O)C3CC3)ncc12 [Example 30, N-(8-(methylamino)-5-(4-methyloxazol-5-yl)-2,7-naphthyridin-3-yl)cyclopropanecarboxamide]","Kd [1, 6]: ≤ 100 nM; IC50 [2, 7]: > 500 nM"
,,≤ 100,"CNc1ncc(C#Cc2ccc(OC)cn2)c2cc(NC(=O)C3CCOCC3)ncc12 [Example 1081, N-[5-[2-(5-methoxy-2-pyridyl)ethynyl]-8-(methylamino)-2,7-naphthyridin-3-yl]tetrahydropyran-4-carboxamide]","IC50 [2, 8]: ≤ 500 nM"
≤ 100,≤ 500,,"CNc1ncc(-c2nc3cc(N4C[C@@H](C)O[C@@H](C)C4)ccc3o2)c2cc(NC(=O)C3CC3)ncc12 [Example 315, N-(5-(5-((2R,6S)~2,6-dimethylmorpholino)benzo[d]oxazol-2-yl)-8-(methylamino)-2,7-naphthyridin-3-yl)cyclopropanecarboxamide]",

SMILES,"Kd [1, 3] [nM]","IC50 [2, 4] [nM]","Kd [1, 5] [nM]",further results
"CNc1ncc(C#Cc2ccc(CN3C4CCC3COC4)cc2)c2cc(NC(=O)C3CC3)ncc12 [Example 815, N-(5-((4-(3-oxa-8-aza-bicyclo[3.2.1]octan-8-ylmethyl)phenyl)ethynyl)-8-(methylamino)-2,7-naphthyridin-3-yl)cyclopropanecarboxamide]",,≤ 500,≤ 100,
